Data set [1] deals with T1, purified recombinant HIV RT (Human immunodeficiency virus type 1 group M subtype B, UniProt P04585).
T1 construct: against purified recombinant HIV RT using the cell-free Quan-T-RT system
As to the kind of experiment: Purified recombinant HIV RT inhibition, cell-free Quan-T-RT scintillation proximity assay. The data set is classed as biochemical. The procedure:
In the assay, a DNA/RNA template is bound to SPA beads via a biotin/strepavidin linkage. The primer DNA is a 16-mer oligo(T) which has been annealed to a poly(A) template. The primer/template is bound to a strepavidin-coated SPA bead.
^3H-TTP is incorporated into the primer by reverse transcription. […] The compound being tested was added to the reaction mixture at 0.001 μM-100 μM concentrations. […] The reaction was stopped by addition of 0.2 ml of 120 mM EDTA. The samples were counted in an open window using a Beckman LS 7600 instrument and IC50 values were calculated by comparing the measurements to untreated samples.
In general terms: Scintillation proximity formats need no separation of bound from free tracer.

Data set [2] can be described thus: Microculture tetrazolium Assay (MTA, XTT) for cytotoxicity. The data set is classed as cell-based, human. As to conditions: human, PBMC; Table 1; cytotoxicity, MTA. (Tetrazolium assays rely on reduction of a dye to a coloured formazan, in cell work by metabolically active cells.)
A further data set relates to HIV-1 strain HTLVIIIB
In words: Inhibition of HIV-1 HTLVIIIB replication in PBMC (p24 antigen EIA). The data set is classed as cell-based. On the procedure: The HIV strain HTLVIIIB was kindly provided by Dr. Neal T.Wetherall, VIROMED Laboratories, Inc., and was propagated in CCRF-CEM cells.
Subsequently, cells were cultured in 96-well microplates (100 μL/well; 2×10^6 cells/mL, triplicate wells) in the presence of various inhibitor concentrations. […] Ag. […] The applied p24 EIA was the unmodified kinetic assay commercially available from Coulter Corporation/Immunotech, Inc. (Westbrook, Me.).
(§1) Percent inhibition of viral replication was calculated by comparing the p24 values from the test substance-treated infected cells with p24 values from untreated infected cells (i.e, virus controls).

The test system of data set [3] is NNI-resistant HIV-1 strain A17 with a Y181C mutation. As to the kind of experiment: microbe, parasite or virus in culture. The data set is classed as cell-based. As to conditions: for IC50: read-out: IC50 A17 (Y181C). The procedure:
(§2) Normal human peripheral blood mononuclear cells (PBMNC) from HIV-negative donors were cultured 72 hours in RPMI 1640 supplemented with 20% (v/v) heat-inactivated fetal bovine serum (FBS), 3% interleukin-2,2 mM L-glutairine, 25 mM HEPES, 2 μL, NAHCO, […] gentamicin, and 4 μg/mL phytohemagglutinin prior to exposure to HIV-1 or other HIV strain at a multiplicity of infection (MOI) of 0.1 during a one-hour adsorption period at 37° C. in a humidified 5% CO2 atmosphere. Subsequently, cells were cultured in 96-well microplates (100 μL/well; 2×10^6 cells/mL, triplicate wells) in the presence of various inhibitor concentrations. Aliquots of culture supernatants were removed from the wells on the 7th day after infection for p24 antigen p24 enzyme immunoassays (EIA), as previously described in Erice et al., 1993, Antimicrob. Ag. Chemotherapy 37:385-838. The applied p24 EIA was the unmodified kinetic assay commercially available from Coulter Corporation/Immunotech, Inc. (Westbrook, Me.).
as §1

Data set [4] deals with multidrug resistant HIV-1 strain RT-MDR with a V106A mutation. In words: microbe, parasite or virus in culture. The data set is classed as cell-based. The procedure:
as §2, §1

In another data set the test system is PBMC. As to the kind of experiment: Microculture tetrazolium Assay (MTA, XTT) for cytotoxicity. The data set is classed as cell-based, human.
Setting [5] is: Table 1, recombinant HIV RT, read-out: IC50 rRT.
[6] abbreviates: Table 2, recombinant HIV reverse transcriptase, read-out: IC50 rRT.
Setting [7] is: Human immunodeficiency virus 1, PBMC, Table 2, wild-type HIV-1, read-out: IC50 p24.
Where [8] appears, read: Human immunodeficiency virus 1, Table 1, p24 production in PBMC, read-out: IC50 HTLV mB.
[9] abbreviates: read-out: IC50 rRT, Table 2, recombinant HIV reverse transcriptase.
The mark [10] stands for this setting: Human immunodeficiency virus 1, PBMC.
[11] abbreviates: Human immunodeficiency virus 1, PBMC, read-out: IC50 RT-MDR.
Where [12] appears, read: Human immunodeficiency virus 1, PBMC, read-out: IC50 HTLV mB.

Where two headings read alike, the source gives them in different places.

The results in this text go back to patent US6586450B2, “Phenethyl-thiourea compounds and use” (Parker Hughes Institute, priority 1999, dated 2003).

Take `O=[N+]([O-])c1ccc(CCNC(=S)Nc2ccc(Br)cn2)cc1` [HI-231]: the IC50 in data set [1] (setting [5]) and in data set [1] (setting [6]) was greater than 100000 nM throughout.

With `COc1ccc(CCNC(=S)Nc2ccc(Br)cn2)cc1` [HI-238, N-[2-(4-methoxyphenethyl)]-N′-[2-(5-bromopyridyl)]thiourea], the melting point was in the range of 178 to 179 °C. The compound also had a 50% cytotoxic concentration (CC50) in data set [2] greater than 100000 nM. For the same compound, the half-inhibitory concentration (IC50) in the data set on HIV-1 strain HTLVIIIB (setting [7]) was determined as 15 nM. The concentration for half-maximal inhibition (IC50) with HIV-1 strain HTLVIIIB (setting [8]) worked out at 15 nM. Also, in data set [1], the IC50 was determined as 900 nM. Further, the IC50 in data set [1] (setting [9]) stood at 900 nM.

Consider `Fc1ccc(CCNC(=S)Nc2ccc(Br)cn2)cc1` [HI-242, N-[2-(4-fluorophenethyl)]-N′-[2-(5-bromopyridyl)]thiourea], for which the IC50 in data set [1] (setting [5]) and in data set [1] (setting [6]) was 6400 nM each time.

As for `S=C(NCCc1ccc(Br)cc1)Nc1ccc(Br)cn1` [HI-243, N-[2-(4-bromophenethyl)]-N′-[2-(5-bromopyridyl)]thiourea], the melting point is 184 to 185 °C. For the same compound, the CC50 in data set [2] is greater than 100000 nM. Further, the IC50 in the data set on HIV-1 strain HTLVIIIB (setting [7]) came to 70 nM. In addition, in the data set on HIV-1 strain HTLVIIIB (setting [8]), the IC50 is 70 nM. Moreover, the half-inhibitory concentration (IC50) in data set [3] (setting [10]) was 1000 nM. In addition, in data set [4] (setting [11]), the IC50 was greater than 1 nM. For the same compound, the concentration for half-maximal inhibition (IC50) in data set [1] is 900 nM.

In turn, `Cc1ccc(CCNC(=S)Nc2ccc(Br)cn2)cc1` [HI-244, N-[2-(4-methylphenethyl)]-N′-[2-(5-bromopyridyl)]thiourea] had a melting point of 159 to 162 °C. In data set [2], this compound showed a CC50 of 71000 nM. The “cytotoxicity to PBMC” value in the data set on PBMC (at a concentration) was “not cytotoxic”. Further, the IC50 with HIV-1 strain HTLVIIIB (setting [12]) was determined as 7 nM. The IC50 with HIV-1 strain HTLVIIIB (Human immunodeficiency virus 1, PBMC, read-out: IC50 for inhibition of replication of HIV-1 strain HTLVIIIB in PBMC) turned out to be 7 nM. For the same compound, the IC50 in the data set with HIV-1 strain HTLVIIIB (Human immunodeficiency virus 1, PBMC, read-out: IC50 p24) amounted to 7 nM. Further, the selectivity index in the data set on HIV-1 strain HTLVIIIB (against wild-type HIV-1 strain HTLVIIIB) is listed as > 10,000. For the same compound, in data set [3] (A17 strain, Y181C), the “times more potent than trovirdine” value was found to be 7 times. Also, in data set [3] (setting [10]), the half-inhibitory concentration (IC50) is 70 nM. In addition, the “higher potency relative to trovirdine” value in data set [3] (NNI-resistant A17 strain (Y181C mutation)) is on record as 7 fold. Moreover, the “resistance of mutant strain to compound” value in data set [3] (Y181C mutant strain (A17 strain)) came out at 10 fold. For the same compound, the selectivity index in data set [3] (against NNI-resistant Y181C mutant strain A17) was > 1,000. In addition, in data set [4] (setting [11]), the IC50 is greater than 1 nM. Also, the “times more effective than trovirdine” value in data set [4] (RT-MDR strain, V106A plus 74V, 41L, 215Y) came out at 20 times. In data set [4] (V106A mutant strain (RT-MDR)), the “resistance of mutant strain to compound” value was “no resistance”. Moreover, the selectivity index in data set [4] (against multidrug-resistant V106A mutant strain RT-MDR) was > 71,000. Also, the IC50 in data set [1] is 100 nM.

The compound `S=C(NCCc1ccc(Cl)cc1)Nc1ccc(Br)cn1` [HI-255, N-[2-(4-chlorophenethyl)]-N′-[2-(5-bromopyridyl)]thiourea] returned a melting point of 180 to 183 °C. The IC50 with HIV-1 strain HTLVIIIB (setting [8]) is 20800 nM. The IC50 in data set [1] was 2500 nM. In addition, in data set [1] (setting [9]), the IC50 stood at 2500 nM.

Consider `Oc1ccc(CCNC(=S)Nc2ccc(Br)cn2)cc1` [HI-256, N-[2-(4-hydroxyphenethyl)]-N′-[2-(5-bromopyridyl)]thiourea], for which the CC50 in data set [2] is greater than 100000 nM. Also, the IC50 turned out to be 3070 nM with HIV-1 strain HTLVIIIB (setting [12]) and 87700 nM in data set [1].

For the compound `S=C(NCCc1ccccc1)Nc1ccc(Br)cn1` [HI-275, N-[2-(5-Bromopyridinyl)]-N′-[2-(Phenethyl)] thiourea], the IC50 in data set [1] (setting [5]) is 1300 nM.

`S=C(NCCc1ccccn1)Nc1ccc(Br)cn1` [Trovirdine, reference compound] showed a CC50 in the data set with PBMC (Table 1, cytotoxicity, MTA) greater than 100000 nM. The IC50 in the data set on HIV-1 strain HTLVIIIB (Table 1, p24 production in PBMC, read-out: IC50 HTLV mB) came out at 7 nM; in the data set with HIV-1 strain HTLVIIIB (Table 2, wild-type HIV-1, read-out: IC50 p24) it was 7 nM; in data set [3] (Table 1, p24 production in PBMC), 500 nM; in data set [4] (Table 1, p24 production in PBMC, read-out: IC50 RT-MDR (Y106A)), 20 nM. Moreover, in data set [4] (RT-MDR strain), the “times less potent than HI-244” value is 20 times.

By IC50 is commonly meant the concentration that gives 50% inhibition. What is called CC50 is the concentration giving 50% cytotoxicity. Higher therefore signals lower toxicity to the cells. What is called melting point is the temperature, or range, at which the solid turns liquid.
